# Experimental data from patent publication US20190071670A1, “Methods Of Treatment For Alpha-1 Antitrypsin Deficiency” (Arrowhead Pharmaceuticals, Inc., priority 2016, published 2019).
# System: hAAT
# Assay: Serum hAAT protein levels in PiZ mice (ELISA)
# Type: in vivo, human (expressed in PiZ mice)
# Conditions: for Serum hAAT levels reduced: 6 month old female PiZ mice, single IV 8 mg/kg + 8 mg/kg MLP delivery polymer; for Serum hAAT normalized to Day 1 and control / Normalized serum hAAT levels: PiZ mice; for Normalized serum hAAT levels: normalized to day 1 and saline control
# Method: Human AAT protein levels in serum were monitored for 29 days. At the indicated times, blood samples were collected and assayed for hAAT by ELISA. Day 1 samples were collected prior to trigger administration. For mRNA analysis, 3-4 mice were euthanized at each of days 3, 8, 15, 22, and 29. For euthanized mice, cardiac stick were performed for serum isolation for AAT ELISA (200 μl serum). Half of the left lateral liver lobe was collected and snap-freeze in liquid nitrogen for RNA isolation. The remainder of the left lobes were embedded into paraffin blocks for PAS-D staining with hematoxylin as counter-stain. Serum hAAT levels in mice given AAT Duplex Pair SEQ ID NO: 5/6 were 95% reduced on day 8 and remained reduced to day 29, at which time they were 79% reduced. Mice given AAT Duplex Pair SEQ ID NO: 5/6 were euthanized at either day 3, 8, 15, 22 or 29. Mice given saline or Luciferase siRNA control (SEQ ID 7/8) were euthanized on day 29. Levels of hAAT mRNA in the livers were measured by RT-qPCR. The hAAT mRNA in mice given AAT Duplex Pair SEQ ID NO: 5/6 was reduced by 97% on day 3 and remained reduced on day 29, at which time levels were 56% reduced. The size of the globules and the area of the liver covered by globules was digitally quantitated from liver specimens stained with PAS-D. Duplex Pair SEQ ID NO: 5/6 treated mice had 70% smaller globules at day 15 and 62% smaller globules at day 29. The area of the liver covered with globules was 83% reduced on day 15 and 72% reduced on day 29 (FIG. 5).
substance,measurement,setting,value
"Duplex Pair SEQ ID NO: 5/6: double-stranded AAT RNAi agent: modified antisense strand SEQ ID NO: 5 annealed to Chol-TEG sense strand SEQ ID NO: 6 (antisense TGGAACUUGGUGAUGAUAUTT; sense UAUAUAUCAUCACCAAGUUCCAT; Chol-TEG on sense strand; chemical modifications; antisense strand of dsRNA; modified_base 7 /mod_base = “2′-3′ seco corresponding nucleotide”; modified_base 2,4,6,8,10,12,14,16,18 /mod_base = “2′-deoxy-2′-fluoro corresponding nucleoside”; modified_base 3,5,9,11,13,15,17,19 /mod_base = “2′-O-methyl corresponding nucleoside”; modified_base 21 /mod_base = “5′-phosphorothioate corresponding nucleotide”; sense strand of dsRNA; modified_base 2 /mod_base = “2′-hydroxy corresponding nucleoside”; modified_base 4,6,8,10,12,14,16,18,20,22 /mod_base = “2′-deoxy-2′-fluoro corresponding nucleoside”; …)",Serum hAAT levels reduced,day 8,95%
same,Serum hAAT levels reduced,day 29,79%
same,Serum hAAT normalized to Day 1 and control,"single IV 0.5 mg/kg + 4 mg/kg MLP delivery polymer, Day 1",1.00
same,Serum hAAT normalized to Day 1 and control,"single IV 0.5 mg/kg + 4 mg/kg MLP delivery polymer, Day 3",0.27 ± 0.02
same,Serum hAAT normalized to Day 1 and control,"single IV 0.5 mg/kg + 4 mg/kg MLP delivery polymer, Day 8",0.29 ± 0.09
same,Serum hAAT normalized to Day 1 and control,"single IV 0.5 mg/kg + 4 mg/kg MLP delivery polymer, Day 15",0.43 ± 0.01
same,Serum hAAT normalized to Day 1 and control,"single IV 0.5 mg/kg + 4 mg/kg MLP delivery polymer, Day 22",0.73 ± 0.03
same,Serum hAAT normalized to Day 1 and control,"single IV 0.5 mg/kg + 4 mg/kg MLP delivery polymer, Day 29",0.66 ± 0.05
same,Serum hAAT normalized to Day 1 and control,"single IV 0.5 mg/kg + 4 mg/kg MLP delivery polymer, Day 35",0.97 ± 0.02
same,Serum hAAT normalized to Day 1 and control,"single IV 0.5 mg/kg + 4 mg/kg MLP delivery polymer, Day −3",0.64 ± 0.10
same,Serum hAAT normalized to Day 1 and control,"single IV 0.5 mg/kg + 8 mg/kg MLP delivery polymer, Day 1",1.00
same,Serum hAAT normalized to Day 1 and control,"single IV 0.5 mg/kg + 8 mg/kg MLP delivery polymer, Day 3",0.20 ± 0.02
same,Serum hAAT normalized to Day 1 and control,"single IV 0.5 mg/kg + 8 mg/kg MLP delivery polymer, Day 8",0.10 ± 0.03
same,Serum hAAT normalized to Day 1 and control,"single IV 0.5 mg/kg + 8 mg/kg MLP delivery polymer, Day 15",0.19 ± 0.05
same,Serum hAAT normalized to Day 1 and control,"single IV 0.5 mg/kg + 8 mg/kg MLP delivery polymer, Day 22",0.55 ± 0.05
same,Serum hAAT normalized to Day 1 and control,"single IV 0.5 mg/kg + 8 mg/kg MLP delivery polymer, Day 29",0.49 ± 0.09
same,Serum hAAT normalized to Day 1 and control,"single IV 0.5 mg/kg + 8 mg/kg MLP delivery polymer, Day 35",0.71 ± 0.09
same,Serum hAAT normalized to Day 1 and control,"single IV 0.5 mg/kg + 8 mg/kg MLP delivery polymer, Day −3",0.71 ± 0.03
same,Normalized serum hAAT levels,"single IV 2 mg/kg + 2 mg/kg MLP, day 1",1.00
same,Normalized serum hAAT levels,"single IV 2 mg/kg + 2 mg/kg MLP, day 8",0.32 ± 0.24
same,Normalized serum hAAT levels,"single IV 2 mg/kg + 2 mg/kg MLP, day 15",0.88 ± 0.13
same,Normalized serum hAAT levels,"single IV 2 mg/kg + 2 mg/kg MLP, day 20",0.89 ± 0.18
same,Normalized serum hAAT levels,"single IV 2 mg/kg + 2 mg/kg MLP, day 29",1.01 ± 0.23
same,Normalized serum hAAT levels,"single IV 2 mg/kg + 2 mg/kg MLP, day 36",1.02 ± 0.15
same,Normalized serum hAAT levels,"single IV 2 mg/kg + 2 mg/kg MLP, day −7",0.91 ± 0.11
same,Serum hAAT normalized to Day 1 and control,"single IV 2 mg/kg + 4 mg/kg MLP delivery polymer, Day 1",1.00
same,Serum hAAT normalized to Day 1 and control,"single IV 2 mg/kg + 4 mg/kg MLP delivery polymer, Day 3",0.25 ± 0.03
same,Serum hAAT normalized to Day 1 and control,"single IV 2 mg/kg + 4 mg/kg MLP delivery polymer, Day 8",0.21 ± 0.07
same,Serum hAAT normalized to Day 1 and control,"single IV 2 mg/kg + 4 mg/kg MLP delivery polymer, Day 15",0.32 ± 0.06
same,Serum hAAT normalized to Day 1 and control,"single IV 2 mg/kg + 4 mg/kg MLP delivery polymer, Day 22",0.71 ± 0.14
same,Serum hAAT normalized to Day 1 and control,"single IV 2 mg/kg + 4 mg/kg MLP delivery polymer, Day 29",0.66 ± 0.06
same,Serum hAAT normalized to Day 1 and control,"single IV 2 mg/kg + 4 mg/kg MLP delivery polymer, Day 35",0.70 ± 0.09
same,Serum hAAT normalized to Day 1 and control,"single IV 2 mg/kg + 4 mg/kg MLP delivery polymer, Day −3",0.67 ± 0.02
same,Normalized serum hAAT levels,"single IV 2 mg/kg + 4 mg/kg MLP, day 1",1.00
same,Normalized serum hAAT levels,"single IV 2 mg/kg + 4 mg/kg MLP, day 8",0.07 ± 0.04
same,Normalized serum hAAT levels,"single IV 2 mg/kg + 4 mg/kg MLP, day 15",0.50 ± 0.19
same,Normalized serum hAAT levels,"single IV 2 mg/kg + 4 mg/kg MLP, day 20",0.67 ± 0.12
same,Normalized serum hAAT levels,"single IV 2 mg/kg + 4 mg/kg MLP, day 29",0.89 ± 0.06
same,Normalized serum hAAT levels,"single IV 2 mg/kg + 4 mg/kg MLP, day 36",0.94 ± 0.17
same,Normalized serum hAAT levels,"single IV 2 mg/kg + 4 mg/kg MLP, day −7",0.90 ± 0.15
same,Serum hAAT normalized to Day 1 and control,"single IV 2 mg/kg + 8 mg/kg MLP delivery polymer, Day 1",1.00
same,Serum hAAT normalized to Day 1 and control,"single IV 2 mg/kg + 8 mg/kg MLP delivery polymer, Day 3",0.17 ± 0.03
same,Serum hAAT normalized to Day 1 and control,"single IV 2 mg/kg + 8 mg/kg MLP delivery polymer, Day 8",0.05 ± 0.00
same,Serum hAAT normalized to Day 1 and control,"single IV 2 mg/kg + 8 mg/kg MLP delivery polymer, Day 15",0.10 ± 0.03
same,Serum hAAT normalized to Day 1 and control,"single IV 2 mg/kg + 8 mg/kg MLP delivery polymer, Day 22",0.22 ± 0.03
same,Serum hAAT normalized to Day 1 and control,"single IV 2 mg/kg + 8 mg/kg MLP delivery polymer, Day 29",0.40 ± 0.06
same,Serum hAAT normalized to Day 1 and control,"single IV 2 mg/kg + 8 mg/kg MLP delivery polymer, Day 35",0.63 ± 0.04
same,Serum hAAT normalized to Day 1 and control,"single IV 2 mg/kg + 8 mg/kg MLP delivery polymer, Day −3",0.53 ± 0.08
same,Normalized serum hAAT levels,"single IV 4 mg/kg + 2 mg/kg MLP, day 1",1.00
same,Normalized serum hAAT levels,"single IV 4 mg/kg + 2 mg/kg MLP, day 8",0.08 ± 0.03
same,Normalized serum hAAT levels,"single IV 4 mg/kg + 2 mg/kg MLP, day 15",0.68 ± 0.13
same,Normalized serum hAAT levels,"single IV 4 mg/kg + 2 mg/kg MLP, day 20",0.90 ± 0.15
same,Normalized serum hAAT levels,"single IV 4 mg/kg + 2 mg/kg MLP, day 29",1.07 ± 0.07
same,Normalized serum hAAT levels,"single IV 4 mg/kg + 2 mg/kg MLP, day 36",1.01 ± 0.08
same,Normalized serum hAAT levels,"single IV 4 mg/kg + 2 mg/kg MLP, day −7",1.27 ± 0.07
same,Serum hAAT normalized to Day 1 and control,"single IV 4 mg/kg + 4 mg/kg MLP delivery polymer, Day 1",1.00
same,Serum hAAT normalized to Day 1 and control,"single IV 4 mg/kg + 4 mg/kg MLP delivery polymer, Day 3",0.27 ± 0.03
same,Serum hAAT normalized to Day 1 and control,"single IV 4 mg/kg + 4 mg/kg MLP delivery polymer, Day 8",0.13 ± 0.02
same,Serum hAAT normalized to Day 1 and control,"single IV 4 mg/kg + 4 mg/kg MLP delivery polymer, Day 15",0.23 ± 0.07
same,Serum hAAT normalized to Day 1 and control,"single IV 4 mg/kg + 4 mg/kg MLP delivery polymer, Day 22",0.58 ± 0.09
same,Serum hAAT normalized to Day 1 and control,"single IV 4 mg/kg + 4 mg/kg MLP delivery polymer, Day 29",0.60 ± 0.08
same,Serum hAAT normalized to Day 1 and control,"single IV 4 mg/kg + 4 mg/kg MLP delivery polymer, Day 35",0.92 ± 0.22
same,Serum hAAT normalized to Day 1 and control,"single IV 4 mg/kg + 4 mg/kg MLP delivery polymer, Day −3",0.70 ± 0.17
